Laboratory results taken from patent US20250144049A1, “METHODS, COMPOSITIONS, AND USES RELATED TO THE TREATMENT AND PREVENTION OF LEIGH SYNDROME” (Stealth BioTherapeutics Inc., priority 2023, published 2025).

Legend:
[1] = system: reverse electron transfer (RET) from Complex II to Complex I in isolated murine brain mitochondria; assay: Reverse electron transfer (RET) assay, H2O2 (ROS) production; format: biochemical, mouse
Experimental: For mitochondria isolation, brains were dissected at a local vivarium (Explora, MA, USA) from C57BL/6 mice that were supplied by The Jackson Laboratory (Maine, USA). Brains were collected on ice in cold mitochondria isolation buffer (225 mM mannitol, 75 mM sucrose, 5 mM HEPES, 1 mM EGTA, pH 7.4). In a glass petri dish, brains were mixed with a few drops of buffer and cut into small pieces resembling a mash using scissors. Mitochondrial isolation buffer was added at 1:10-1:20 (w/v) and tissue mash was transferred to a glass Dounce tissue homogenizer and further homogenized with 10-15 strokes. Mash was centrifuged at 1,000×g for 10 min to pellet and remove cellular debris, etc. Supernatant was transferred into 2.0 mL tubes and centrifuged at 10,000×g. The mitochondria pellet was resuspended in the desired amount of miR05 buffer (Oroboros, Innsbruck, Austria) and added directly to the Oroboros oxygraph-2K (Oroboros, Innsbruck, Austria) for an experiment or maintained on ice for up to 4 hours.
All high-resolution respirometry experiments were conducted using the Oroboros O2k-Fluorespirometer (Oroboros, Innsbruck, Austria). The Oroboros O2k-Fluorespirometer was calibrated daily using the air calibration protocol on DatLab 7.4 (Oroboros, Innsbruck, Austria). Prior to each experiment requiring the fluorescence module, the AmpR calibration protocol from DatLab 7.4 was used to calibrate the fluorescence signal. Initial data analysis, including setting of marks, was performed using DatLab 7.4.
Reverse electron transfer (RET) was measured using HRR with the Oroboros O2k and DatLab 7.4. To configure the Amp channel, the light or “Fluo intensity” was set at 1000 and the amplification of signal or “Gain for Fluo sensor” at 500 and illumination in the chamber was turned “off”. To calibrate the Fluo sensors, the Instrument protocol “AmR calibration” was used. […]
Statistical analysis was performed using GraphPad Prism 9. […] RET Assay data were analyzed by 2-way ANOVA using a p-value of 0.05. […]

15-lipoxygenase (15-LO) = assay: 15(S)-HETE ELISA following RSL3 treatment, healthy fibroblasts; format: cell-based, human; conditions: 700 nM RSL3, 1 μM compound, FIG. 10; for inhibition of 15-lipoxygenase (15(S)-HETE in supernatant): 24 hours
Experimental: Samples for the 15(S)-HETE ELISA were generated by the RSL3 cytoprotection assay described above. Healthy or Leigh fibroblasts were resuspended in assay medium, seeded at 200,000 cells per well in a clear, tissue culture-treated, 24-well plate. Cells were incubated at 37° C. for 24 hours. Supernatant was aspirated from each well following the incubation.
Fibroblasts from both a healthy individual and a patient diagnosed with Leigh syndrome were examined (but not all compounds were examined in each cell type). Activation of ferroptosis has been implicated as a driver of epilepsy, which is commonly associated with Leigh syndrome. […] Kahn-Kirby et al. PLOS One. […] As a key regulator of ferroptosis, 15-LO serves as a rational therapeutic target in Leigh syndrome.

[2] = Pharmacokinetics of Compound 3 and Compound 4 after five daily subcutaneous doses, plasma, heart, brain; format: in vivo, C57BL/6 mice; conditions: for tolerability: dose levels up to 60 mg/kg, SC injection, 5 daily doses
Experimental: • Animals: Male/C57Bl/6 mice/-18-25 grams were received from an approved vendor. • Fasting was not required for this study. • Body weights were recorded prior to dose administration. The volume of each dose delivered (mL/kg) was based on each individual animal's body weight. • This was a multiple dose terminal study dosed once per day over 5 days. Mice were taken down following their 5th and final dose. • Doses were administered in accordance with test facility standard operating procedures. […] Any abnormalities were recorded. • Pre-formulated Compound 3 and Compound 4 were provided by Study sponsor ready to be dosed for each day in accordance with the Study Design set forth in Table 1, below.
b) Sample collection—Post Dosing: • Terminal blood samples were collected via cardiac puncture following inhalation of anesthesia in accordance with test facility standard operating procedures. • Blood samples were collected into tubes with appropriate anticoagulant. The tubes were stored on wet ice until processed to plasma by centrifugation (3500 rpm at 5° C. for 10 minutes) within 20 minutes of collection. Sample aliquots of 100 μL were transferred into individual uniquely labeled matrix tubes and stored at nominal −80° C. until transferred to analytical chemistry for analysis by LC/MS/MS. • Immediately following each terminal blood collection for all groups, animals were sacrificed and perfused with cold PBS. The following tissues were collected: heart and brain in accordance with Table 2. • Plasma and tissue samples were processed for analysis by LC/MS/MS to determine the amounts/concentrations reported in the FIGS. 18-21.

[3] = 2 μM compound prior to addition of succinate (10 mM)

SMILES	H2O2 production [1, 3]	inhibition of 15-lipoxygenase (15(S)-HETE in supernatant) (15-lipoxygenase (15-LO))	15-lipoxygenase inhibition compared among test articles (15-lipoxygenase (15-LO))	plasma exposure versus dose ([2]; mouse, 20 mg/kg and 60 mg/kg SC)	heart exposure based on AUC, Compound 3 versus Compound 4 ([2]; mouse, SC)	exposure (Cmax and AUC) heart versus brain ([2]; mouse, SC, after 5th dose)	tolerability ([2]; mouse)	concentration in heart tissue ([2]; mouse, up to 2 hours post administration after 5 days, Compound 3 20 and 60 mg/kg, Compound 4 60 mg/kg SC, FIG. 18)	concentration in brain tissue ([2]; mouse, up to 2 hours post administration after 5 days, Compound 3 20 and 60 mg/kg, Compound 4 60 mg/kg SC, FIG. 19)	H2O2 production ([1]; 1 μM compound prior to addition of succinate (10 mM))	brain exposure based on AUC, Compound 4 versus Compound 3 ([2]; male, C57BL/6, mouse, in vivo, sc)	Tmax, Compound 4 versus Compound 3 ([2]; mouse, in vivo, sc)	exposure (Cmax and AUC) heart versus brain ([2]; mouse, in vivo, sc)	half-life, Compound 4 versus Compound 3 ([2]; mouse, in vivo, sc)
CC1=C(C)C(=O)C(CC[C@@](C)(O)COCCC[Si](C)(C)C)=C(C)C1=O [Compound 3]	statistically significant reduction	inhibited 15-lipoxygenase	superior to Compounds 2, 4 and Vatiquinone	roughly proportional to dose	slightly higher	higher in heart than in brain	well tolerated	up to microgram quantities of drug per gram of heart tissue	up to microgram quantities of drug per gram of brain tissue	–	–	–	–	–
CC1=C(C)C(=O)C(CC[C@](C)(O)CCCCCCCCC(F)(F)F)=C(C)C1=O [Compound 4]	statistically significant reduction	inhibited 15-lipoxygenase	roughly equivalent protective effect	–	–	–	well tolerated	–	–	statistically significant reduction	somewhat higher than Compound 3	typically later	no difference	tended to be longer
